The IC50 is the concentration that inhibits the measured activity by half.

Data set [1] deals with BEAS-2B cells. In words: mRNA expression of CXCL9, CXCL10 and CXCL11 in BEAS-2B cells (Taqman RT-PCR). The format is cell-based, human. The note with it: BEAS-2b, pretreated 1h, IFNγ or IFNγ with TNFα for 4h. As to the method:
Total RNA was extracted from cells and reverse transcribed, as described previously. Gene expression was determined by Taqman real-time PCR on a 7500 Real Time PCR system (Applied Biosystems, Life Technologies Ltd, Paisley, UK) using PCR Master Mix Reagent and ‘assays on demand’ (Applied Biosystems). HPRT1 gene expression was used as the housekeeping gene and data presented as δδCT relative to baseline.
Gene expression of CXCL9 (panels a and b), CXCL10 (panels c and d) and CXCL11 (panels e and f) were quantified by Taqman RT-PCR. Data are presented as fold change form stimulus ± SEM; n = 3 where 1 indicates the level of mRNA induced by IFNγ or IFNγ + TNFα in the absence of inhibitors.
Background: In qPCR the cycle at which signal appears reflects the starting amount.

Data set [2] concerns STAT-1. The experiment in a line: STAT-1 DNA binding in BEAS-2B cells (TransAM). The note with it: IFNγ and IFNγ + TNFα stimulation. The data set is classed as cell-based, human. As to the method:
STAT phosphorylation, nuclear translocation and DNA binding was determined using TransAM assays (Actif Motif, Rixensart, Belgium). Cells were treated with JAK inhibitors for 30 min prior to stimulation for 1h. Nuclear extracts were prepared using the Actif Motif assay reagents. Briefly, the nuclear extracts (10 μg) were incubated in DNA coated plates for 1h. After washing, antibodies supplied with the TransAM kit that were specific for the active forms of STAT1, STAT3, STAT5A and STAT5B were added to the wells and incubated for a further hour. The plates were washed and a secondary HRP-labelled anti-goat Ig antibody was added and the plates incubated for an hour. After washing, the assay was developed using the TMB substrate provided and the reaction stopped using 2N sulphuric acid. The plates were read at 450nm with a reference filter of 610nm. Data were then normalised to non-stimulated cells and calculated as fold change from baseline.
After 1 h, nuclear extracts of the cells were prepared and TransAM assays for STAT-1 (panel a) and STAT-3 (panel b) were performed. Data are presented as fold change from baseline ± SEM; n = 4.

The subject of data set [3] is BEAS-2B and human primary airway epithelial cells. In words: Cell viability, MTT assay. The data set is classed as cell-based. The note with it: for cell viability compared to untreated cells (MTT): at 10^-6M and at all concentrations below this. As to the method: Cell viability was determined colorimetrically by measuring the reduction of 3-[4,5-dimethylthiazol-2-yl]-2,5-diphenyltetrazolium bromide, MTT, to formazan by mitochondrial dehydrogenases, as described previously.
(§1) In order to determine whether any of the inhibitory effects of the JAK inhibitors could be attributed to cell death, MTT assays were performed at the end of every experiment. […] In order to address this issue, the levels of IL-6 released from cells stimulated with IFNγ + TNFα were measured.
Background: Formazan colour is commonly taken as a measure of viable cells.

In data set [4] the test system is BEAS-2B cells. In words: Release of CXCL9, CXCL10 and CXCL11 from BEAS-2B cells (ELISA), inhibitors added concomitantly with stimulus. The format is cell-based, human. As to the method:
Cell-free supernatants were removed 20h post-stimulation and assayed for CXCL9, CXCL10 and CXCL11 using Duoset ELISA kits (R & D Systems Europe, Abingdon, UK) according to the manufacturer’s instructions. The detection limits of these assays are 62pg/ml, 31pg/ml, and 7.8 pg/ml respectively.
It was possible that concomitant addition of stimulus and JAK inhibitors may elicit a different inhibitory profile, therefore to address this, experiments were performed. […] Experiments were then performed to determine the effects of both JAK inhibitors in human primary airway epithelial cells in order to determine whether their ability to suppress CXCR3 chemokine release from BEAS-2B cells was reflective of their efficacy in primary cells.
Media was harvested and the concentrations of CXCL9 (panels a and d), CXCL10 (panels b and e) and CXCL11 (panels c and f) were measured by ELISA. Data are presented as mean±SEM, n = 7–8. (EPS) Click here for additional data file. […]
After this time, media was harvested and the concentrations of CXCR3 chemokines measured by ELISA. Data are presented as mean±SEM, n=4
(ELISA stands for enzyme-linked immunosorbent assay.)

Data set [5] deals with STAT-1. In words: STAT-1 phosphorylation in BEAS-2B cells (western blot). The data set is classed as cell-based, human. To be noted: for IC50: n = 4. As to the method:
Enhanced chemiluminescence (ECL) reagent and Hybond-ECL nitrocellulose were obtained from GE Healthcare (Little Chalfont, UK). Bis-Tris SDS-PAGE (4–12%) gels and buffers were purchased from Invitrogen Ltd (Paisley, Scotland, UK). Antibodies against phosphorylated and total STAT-1 were purchased from New England Biolabs (Hitchin, UK). Epithelial cells were treated as indicated in six-well plates and lysed in 10 mM Tris-HCl buffer (pH 7.5) containing 150 mM NaCl, 2 mM EDTA, 1 mM sodium orthovanadate, 1% (v/v) Triton X-100, 1 mM phenylmethylsulfonyl fluoride, 10 μg/ml leupeptin, and 10 μg/ml aprotinin) for 30 min on ice. The lysates were then centrifuged at 12,000g for 15 min and protein concentration determined using the BCA protein assay (BioRad, Hemel Hempstead, UK). The proteins within the lysates (20 μg) were resolved with 4–12% Bis-Tris gels and transferred onto nitrocellulose membranes. The membranes were then blocked with 5% (w/v) non-fat milk in TBS containing 0.1% (v/v) Tween 20 for 1 h at room temperature and then incubated with antibodies specific for pSTAT-1 overnight at 4°C. The primary antibody was detected with peroxidase-conjugated secondary antibodies and labelled proteins were detected by ECL.
Having ascertained that JAK inhibitors could suppress the glucocorticosteroid-insensitive release of CXCL9, CXCL10 and CXCL11 from airway epithelial cells, it was important to confirm that this was via inhibition of the JAK-STAT pathway and not an off-target effect of these agents. […] BEAS-2B cells were stimulated with either IFNγ or IFNγ in combination with TNFα and the phosphorylation of STAT-1 was measured by western blotting as reported previously (Fig 4). […] There was no activation of STAT-5A or STAT-5B in this system (data not shown).
Cells were harvested and western blots performed for phosphorylated STAT-1 and total STAT-1 and quantified by densitometry. Data are representative of n = 4 independent experiments (panels a and c) and presented as mean±SEM, n = 4 (panels b and d).

The subject of data set [6] is human primary airway epithelial cells. In words: IL-6 release from IFNγ + TNFα-stimulated human primary airway epithelial cells. The format is cell-based. To be noted: for IC50: IFNγ + TNFα, n = 7. As to the method: as §1

Each structure is given as a SMILES string. Where two headings read alike, the source gives them in different places.

With `C[C@@H]1CCN(C(=O)N2CCCC2)C[C@@H]1N(C)c1ncnc2[nH]ccc12` [PF956980], in data set [1], the “effect on expression of CXCL9, CXCL10 and CXCL11 (mRNA)” value was “suppressed expression of CXCL9, CXCL10 and CXCL11 in a concentration dependent manner”. Besides, in data set [2], the “effect on STAT-1 DNA binding” value is recorded as “suppressed”. For the same molecule, the “effect on cell viability (MTT)” value in data set [3] (any of the concentrations used in this study) is “no effect on cell viability”. Further, in data set [3], the “cell viability compared to untreated cells (MTT)” value is “no alterations in cell viability”. In addition, the IC50 was found to be 300 ± 100 nM in data set [4] (inhibitor concomitant with IFNγ (10 ng/ml) 20h, read-out: IC50, release of CXCL9); 1100 ± 400 nM in data set [4] (inhibitor concomitant with IFNγ (10 ng/ml) 20h, read-out: IC50, release of CXCL10); 1100 ± 300 nM in data set [4] (inhibitor concomitant with IFNγ (10 ng/ml) 20h, read-out: IC50, release of CXCL11); 1000 ± 300 nM in data set [4] (inhibitor concomitant with IFNγ+TNFα (10 ng/ml) 20h, read-out: IC50, release of CXCL9); 4000 ± 1300 nM in data set [4] (inhibitor concomitant with IFNγ+TNFα (10 ng/ml) 20h, read-out: IC50, release of CXCL10); 840 ± 210 nM in data set [5] (IFNγ + TNFα stimulation). The IC50 in data set [5] (IFNγ stimulation) was 940 ± 160 nM; in data set [6] it was 11400 ± 9000 nM.

With `CCc1cc(O)ccc1-c1ccc2c(-c3nc4ccccc4[nH]3)n[nH]c2c1` [PF1367550, 4-(3-(1H-benzo[d]imidazol-2-yl)-1H-indazol-6-yl)-3-ethylphenol], in data set [1], the “effect on expression of CXCL9, CXCL10 and CXCL11 (mRNA)” value is recorded as “completely inhibited”. Besides, in data set [2], the “effect on STAT-1 DNA binding” value is reported as “suppressed”. In addition, the “cell viability compared to untreated cells (MTT)” value in data set [3] was “no alterations in cell viability”. For the same molecule, the “effect on cell viability (MTT)” value in data set [3] (within 10^3 of the IC50 for this compound) is reported as “no effect on cell viability”. The concentration for half-maximal inhibition (IC50) amounted to 10.3 ± 2.1 nM in data set [4] (Homo sapiens, 20 h, inhibitor concomitant with IFNγ (10 ng/ml) 20h, read-out: IC50, release of CXCL9); 16.6 ± 2.7 nM in data set [4] (Homo sapiens, 20 h, inhibitor concomitant with IFNγ (10 ng/ml) 20h, read-out: IC50, release of CXCL10); 16 ± 4.1 nM in data set [4] (Homo sapiens, 20 h, inhibitor concomitant with IFNγ (10 ng/ml) 20h, read-out: IC50, release of CXCL11); 31.6 ± 13.4 nM in data set [4] (Homo sapiens, 20 h, inhibitor concomitant with IFNγ+TNFα (10 ng/ml) 20h, read-out: IC50, release of CXCL9); 146 ± 32.6 nM in data set [4] (Homo sapiens, 20 h, inhibitor concomitant with IFNγ+TNFα (10 ng/ml) 20h, read-out: IC50, release of CXCL10); 32 ± 8.7 nM in data set [4] (Homo sapiens, 20 h, inhibitor concomitant with IFNγ+TNFα (10 ng/ml) 20h, read-out: IC50, release of CXCL11). The IC50 in data set [5] (Homo sapiens, IFNγ + TNFα stimulation) amounted to 32 ± 13 nM; in data set [5] (Homo sapiens, IFNγ stimulation), 24 ± 6 nM; in data set [6] (Homo sapiens, Epithelial cell), 800 ± 200 nM. Besides, the “fold more potent at suppressing STAT-1 phosphorylation compared with PF956980” value in data set [5] was ~ 40 fold. Besides, the “IC50 for IL-6 release, fold greater than for inhibition of CXCR3 chemokine release” value in data set [6] was ~ 50 fold.
